Columns and labels:
Format in all cases: physicochemical
[1] = Dynamic vapor sorption (DVS), moisture sorption/desorption isotherms; details: 25° C.
Experimental: Moisture sorption/desorption isotherms were recorded on a DVS-1from Surface Measurement Systems. […] The data were evaluated with the software DVSWin V. 2.15With samples of phase 1, 2, 3and 4of compound I the following water uptake (in mass percent) as a function of the relative humidity was determined.

[2] = Thermodynamic stability of the polymorphs as a function of temperature
[3] = Solubility compared to other polymorphs
[4] = Stability of chloroform solvate outside the mother liquor
[5] = Temperature-resolved X-ray powder diffraction, DSC and TGA of toluene solvate; details: on loss of solvent
Experimental: All X-ray powder diffraction was performed with Stoe Stadi-P transmission diffractometers using CuKα1radiation. For room temperature powder diffraction, linear position sensitive detectors were used, while for temperature-resolved XRPD image plate position sensitive detectors (IP-PSDs) were used. Unless stated otherwise, X-ray powder diffraction was performed at room temperature. Dry samples were investigated in a flat preparation whereas suspensions were investigated in quartz glass capillaries. […] The 2θ (2theta) angles in ° (degree) and the relative intensities of characteristic reflections are specified above, wherein the relative intensity of a reflection is designated as “strong” if it is more than 75% of the intensity of the most intense reflection or it is the most intense reflection itself, and as “medium” if it is between 20% and 75% of the intensity of the most intense reflection.
All DSC measurements were performed with a Mettler DSC822e (module DSC822e/700/109/414935/0025). If not indicated differently, 40μl Al crucibles with sealed lid and hole were used. All measurements were carried out in a nitrogen gas flow of 50mL/minute. The heating rate was 10° C./minute unless indicated otherwise. Temperature and heat flow were calibrated via the melting peak of an indium reference. The measured data were evaluated with the software STARe V6.1.

[6] = Maturation experiments (slurry conversion), relative stability of the polymorphs; details: investigated temperature range 0° C. to 80° C.
Experimental: By maturation experiments (slurry conversion) in the temperature region from 0° C. to 80° C. the relative stability of the polymorphs of compound I was investigated.
Maturation experiments (a) to (d) were performed under the specified conditions, starting from a 1:1mixture of polymorphs 1and 4. • (a) The phase mixture was suspended in ethanol. After stirring the suspension for two days at 60° C., the solid was quickly isolated by vacuum filtration. • (b) The phase mixture was suspended in butyl acetate. After stirring the suspension for two days at 60° C., the solid was quickly isolated by vacuum filtration. • (c) The phase mixture was suspended in 1-pentanol. After stirring the suspension for four hours at 80° C., the solid was quickly isolated by vacuum filtration. • (d) The phase mixture was suspended in 1-octanol. After stirring the suspension for four hours at 80° C., the solid was quickly isolated by vacuum filtration.
Maturation experiments (e) to (p) were performed by stirring the suspension under the specified conditions and isolating the solid by vacuum filtration, starting from polymorph 4. • (e) Maturation of 0.208g of compound I in 1.3ml of water/methanol (1:1) was performed at room temperature for four weeks. […]

COc1ccc(CC(=O)NCc2ccccc2-c2ccccc2C(=O)NCCc2cccnc2)cc1 [Polymorph 2, 2′-{[2-(4-methoxy-phenyl)-acetylamino]-methyl}-biphenyl-2-carboxylic acid (2-pyridin-3-yl-ethyl)-amide]
water uptake (in mass percent) ([1]; relative humidity 20%, listed as Phase 2): 0.04% | water uptake (in mass percent) ([1]; relative humidity 40%, listed as Phase 2): 0.05% | water uptake (in mass percent) ([1]; relative humidity 60%, listed as Phase 2): 0.09% | water uptake (in mass percent) ([1]; relative humidity 80%, listed as Phase 2): 1.79% | thermodynamic stability (in words) [2]: metastable at any temperature | solubility compared to other polymorphs [3]: higher solubility

COc1ccc(CC(=O)NCc2ccccc2-c2ccccc2C(=O)NCCc2cccnc2)cc1 [chloroform solvate, 2′-{[2-(4-methoxy-phenyl)-acetylamino]-methyl}-biphenyl-2-carboxylic acid (2-pyridin-3-yl-ethyl)-amide]
stability outside the mother liquor [4]: only moderately stable | form obtained on transformation ([4]; outside the mother liquor): starts to transform to polymorph 2

COc1ccc(CC(=O)NCc2ccccc2-c2ccccc2C(=O)NCCc2cccnc2)cc1 [Polymorph 4, 2′-{[2-(4-methoxy-phenyl)-acetylamino]-methyl}-biphenyl-2-carboxylic acid (2-pyridin-3-yl-ethyl)-amide]
water uptake (in mass percent) ([1]; relative humidity 20%, listed as Phase 4): 0.05% | water uptake (in mass percent) ([1]; relative humidity 40%, listed as Phase 4): 0.02% | water uptake (in mass percent) ([1]; relative humidity 60%, listed as Phase 4): 0.15% | water uptake (in mass percent) ([1]; relative humidity 80%, listed as Phase 4): 1.80% | temperature range in which the polymorph is thermodynamically stable [2]: around 90 °C

COc1ccc(CC(=O)NCc2ccccc2-c2ccccc2C(=O)NCCc2cccnc2)cc1 [toluene solvate, 2′-{[2-(4-methoxy-phenyl)-acetylamino]-methyl}-biphenyl-2-carboxylic acid (2-pyridin-3-yl-ethyl)-amide]
form obtained on transformation [5]: transforms to polymorph 4

COc1ccc(CC(=O)NCc2ccccc2-c2ccccc2C(=O)NCCc2cccnc2)cc1 [Polymorph 1, 2′-{[2-(4-methoxy-phenyl)-acetylamino]-methyl}-biphenyl-2-carboxylic acid (2-pyridin-3-yl-ethyl)-amide]
water uptake (in mass percent) ([1]; relative humidity 20%, listed as Phase 1): 0.00% | water uptake (in mass percent) ([1]; relative humidity 40%, listed as Phase 1): 0.01% | water uptake (in mass percent) ([1]; relative humidity 60%, listed as Phase 1): 0.01% | water uptake (in mass percent) ([1]; relative humidity 80%, listed as Phase 1): 1.36% | relative thermodynamic stability among the known polymorphs [6]: thermodynamically most stable | temperature range in which the polymorph is thermodynamically stable [2]: below 90 °C

COc1ccc(CC(=O)NCc2ccccc2-c2ccccc2C(=O)NCCc2cccnc2)cc1 [Polymorph 3, 2′-{[2-(4-methoxy-phenyl)-acetylamino]-methyl}-biphenyl-2-carboxylic acid (2-pyridin-3-yl-ethyl)-amide]
water uptake (in mass percent) ([1]; relative humidity 20%, listed as Phase 3): 0.02% | water uptake (in mass percent) ([1]; relative humidity 40%, listed as Phase 3): 0.03% | water uptake (in mass percent) ([1]; relative humidity 60%, listed as Phase 3): 0.06% | water uptake (in mass percent) ([1]; relative humidity 80%, listed as Phase 3): 0.30% | thermodynamic stability (in words) [2]: only metastable below 90 °C

— patent US9056833B2, “Crystalline phases of 2′-{[2-(4-methoxy-phenyl)-acetylamino]-methyl}-biphenyl-2-carboxylic acid (2-pyridin-3-yl-ethyl)-amide” (SANOFI-AVENTIS DEUTSCHLAND GMBH, priority 2009, dated 2015)
